Experimental data published in the NIST ThermoML archive (doi:10.1021/je049762q).
Several values for one entry are separate records, joined by “and”; a condition that tells them apart may be missing. Equal entries are not always repeated.

Test: molar heat capacity at constant pressure
Settings: 101.33 kPa

Brc1cc(Br)cc(Br)c1 [1,3,5-tribromobenzene]
molar heat capacity at constant pressure
Settings | Crystal | Liquid
6.52 K | 1.72 J/K/mol | –
6.88 K | 2.15 J/K/mol | –
6.95 K | 2.19 J/K/mol | –
7.15 K | 2.56 J/K/mol | –
7.61 K | 3.13 J/K/mol | –
7.91 K | 3.91 J/K/mol | –
8.43 K | 4.55 J/K/mol | –
8.64 K | 4.82 J/K/mol | –
9.26 K | 5.6 J/K/mol | –
9.48 K | 6.06 J/K/mol | –
9.98 K | 6.73 J/K/mol | –
10 K | 6.75 J/K/mol | –
10.55 K | 7.4 J/K/mol | –
10.76 K | 7.57 J/K/mol | –
11.09 K | 8.13 J/K/mol | –
11.43 K | 8.59 J/K/mol | –
12.2 K | 9.56 J/K/mol | –
12.4 K | 9.97 J/K/mol | –
13.02 K | 11.12 J/K/mol | –
13.44 K | 11.86 J/K/mol | –
13.52 K | 11.96 J/K/mol | –
14.28 K | 13.92 J/K/mol | –
14.41 K | 14.32 J/K/mol | –
14.86 K | 15.39 J/K/mol | –
15 K | 15.69 J/K/mol | –
15.24 K | 16.16 J/K/mol | –
15.97 K | 17.16 J/K/mol | –
16.24 K | 17.78 J/K/mol | –
16.42 K | 18.22 J/K/mol | –
16.81 K | 18.82 J/K/mol | –
17.75 K | 20.23 J/K/mol | –
18.13 K | 21.04 J/K/mol and 21.05 J/K/mol | –
18.35 K | 21.29 J/K/mol | –
18.91 K | 22.41 J/K/mol | –
19.3 K | 22.84 J/K/mol | –
19.96 K | 24.11 J/K/mol | –
20 K | 24.16 J/K/mol | –
20.32 K | 24.44 J/K/mol | –
20.36 K | 25.02 J/K/mol | –
20.69 K | 25.21 J/K/mol | –
20.91 K | 25.52 J/K/mol | –
21.28 K | 25.98 J/K/mol | –
21.33 K | 26.05 J/K/mol | –
22.22 K | 27.37 J/K/mol | –
22.85 K | 28.05 J/K/mol | –
23.13 K | 28.66 J/K/mol | –
23.5 K | 29.01 J/K/mol | –
25 K | 30.93 J/K/mol | –
25.43 K | 31.5 J/K/mol | –
25.52 K | 31.63 J/K/mol | –
25.66 K | 31.94 J/K/mol | –
27.61 K | 34.27 J/K/mol | –
28.08 K | 34.74 J/K/mol | –
29.8 K | 36.66 J/K/mol | –
30 K | 36.88 J/K/mol | –
30.83 K | 37.81 J/K/mol | –
32.02 K | 39.23 J/K/mol | –
33.45 K | 40.57 J/K/mol | –
34.29 K | 41.49 J/K/mol | –
35.86 K | 42.74 J/K/mol | –
36.6 K | 43.58 J/K/mol | –
38.95 K | 45.82 J/K/mol | –
40 K | 46.88 J/K/mol | –
41.31 K | 48.18 J/K/mol | –
43.74 K | 50.35 J/K/mol | –
46.2 K | 52.53 J/K/mol | –
48.69 K | 54.78 J/K/mol | –
50 K | 55.72 J/K/mol | –
51.22 K | 56.59 J/K/mol | –
53.78 K | 58.73 J/K/mol | –
56.38 K | 60.57 J/K/mol | –
59 K | 62.4 J/K/mol | –
60 K | 63.1 J/K/mol | –
61.66 K | 64.25 J/K/mol | –
64.34 K | 66.1 J/K/mol | –
67.06 K | 67.97 J/K/mol | –
69.79 K | 69.75 J/K/mol | –
70 K | 69.88 J/K/mol | –
72.55 K | 71.4 J/K/mol | –
75.33 K | 73.12 J/K/mol | –
78.14 K | 74.71 J/K/mol | –
80 K | 75.73 J/K/mol | –
80.95 K | 76.25 J/K/mol | –
83.79 K | 77.97 J/K/mol | –
84.19 K | 78.04 J/K/mol | –
86.63 K | 79.59 J/K/mol | –
87.47 K | 79.75 J/K/mol | –
89.49 K | 81.07 J/K/mol | –
90 K | 81.22 J/K/mol | –
90.65 K | 81.41 J/K/mol | –
92.36 K | 82.26 J/K/mol | –
93.74 K | 82.91 J/K/mol | –
95.25 K | 83.54 J/K/mol | –
96.75 K | 84.24 J/K/mol | –
98.15 K | 85.01 J/K/mol | –
99.69 K | 85.65 J/K/mol | –
100 K | 85.83 J/K/mol | –
101.04 K | 86.47 J/K/mol | –
102.61 K | 87.46 J/K/mol | –
105.54 K | 88.95 J/K/mol | –
108.48 K | 90.22 J/K/mol | –
110 K | 90.89 J/K/mol | –
111.43 K | 91.51 J/K/mol | –
114.39 K | 92.81 J/K/mol | –
117.36 K | 94.15 J/K/mol | –
120 K | 95.33 J/K/mol | –
120.34 K | 95.48 J/K/mol | –
123.32 K | 96.75 J/K/mol | –
126.31 K | 98.04 J/K/mol | –
129.31 K | 99.34 J/K/mol | –
130 K | 99.63 J/K/mol | –
132.31 K | 100.61 J/K/mol | –
135.32 K | 101.87 J/K/mol | –
138.33 K | 103.08 J/K/mol | –
140 K | 103.77 J/K/mol | –
141.34 K | 104.32 J/K/mol | –
144.36 K | 105.54 J/K/mol | –
147.39 K | 106.84 J/K/mol | –
150 K | 107.74 J/K/mol | –
150.41 K | 107.89 J/K/mol | –
153.44 K | 109.1 J/K/mol | –
156.48 K | 110.25 J/K/mol | –
159.51 K | 111.32 J/K/mol | –
160 K | 111.51 J/K/mol | –
162.55 K | 112.49 J/K/mol | –
165.6 K | 113.63 J/K/mol | –
168.64 K | 114.79 J/K/mol | –
170 K | 115.31 J/K/mol | –
171.69 K | 115.96 J/K/mol | –
174.73 K | 117.13 J/K/mol | –
177.78 K | 118.3 J/K/mol | –
180 K | 119.09 J/K/mol | –
180.84 K | 119.39 J/K/mol | –
183.89 K | 120.53 J/K/mol | –
186.94 K | 121.72 J/K/mol | –
190 K | 122.82 J/K/mol | –
193.05 K | 123.91 J/K/mol | –
196.11 K | 125.07 J/K/mol | –
199.17 K | 126.16 J/K/mol | –
200 K | 126.45 J/K/mol | –
202.22 K | 127.16 J/K/mol | –
205.28 K | 128.31 J/K/mol | –
208.34 K | 129.4 J/K/mol | –
210 K | 130.05 J/K/mol | –
211.4 K | 130.6 J/K/mol | –
214.46 K | 131.79 J/K/mol | –
217.52 K | 132.78 J/K/mol | –
220 K | 133.7 J/K/mol | –
220.58 K | 133.9 J/K/mol | –
223.64 K | 135.03 J/K/mol | –
226.7 K | 136.15 J/K/mol | –
229.77 K | 137.26 J/K/mol | –
230 K | 137.34 J/K/mol | –
232.83 K | 138.31 J/K/mol | –
235.89 K | 139.48 J/K/mol | –
238.95 K | 140.62 J/K/mol | –
240 K | 141.01 J/K/mol | –
242.01 K | 141.75 J/K/mol | –
245.07 K | 142.87 J/K/mol | –
248.12 K | 143.98 J/K/mol | –
250 K | 144.67 J/K/mol | –
251.17 K | 145.1 J/K/mol | –
254.22 K | 146.19 J/K/mol | –
257.27 K | 147.31 J/K/mol | –
260 K | 148.3 J/K/mol | –
260.32 K | 148.41 J/K/mol | –
263.36 K | 149.52 J/K/mol | –
266.41 K | 150.63 J/K/mol | –
269.46 K | 151.81 J/K/mol | –
270 K | 152.01 J/K/mol | –
272.51 K | 152.93 J/K/mol | –
275.56 K | 153.96 J/K/mol | –
278.61 K | 155.09 J/K/mol | –
280 K | 155.47 J/K/mol | –
281.65 K | 155.93 J/K/mol | –
284.69 K | 157.08 J/K/mol | –
287.74 K | 158.17 J/K/mol | –
290 K | 158.9 J/K/mol | –
290.78 K | 159.14 J/K/mol | –
293.81 K | 160 J/K/mol | –
296.86 K | 161.12 J/K/mol | –
298.15 K | 161.57 J/K/mol | –
299.91 K | 162.28 J/K/mol | –
300 K | 162.32 J/K/mol | –
302.95 K | 163.09 J/K/mol | –
306 K | 164.04 J/K/mol | –
306.85 K | 164.3 J/K/mol | –
309.04 K | 165.03 J/K/mol | –
310 K | 165.35 J/K/mol | –
310.25 K | 165.42 J/K/mol | –
312.08 K | 166.05 J/K/mol | –
313.63 K | 166.52 J/K/mol | –
315.12 K | 167.1 J/K/mol | –
317 K | 167.67 J/K/mol | –
320 K | 168.98 J/K/mol | –
320.37 K | 169.11 J/K/mol | –
323.72 K | 169.81 J/K/mol | –
327.06 K | 170.85 J/K/mol | –
330 K | 172.33 J/K/mol | –
330.4 K | 172.47 J/K/mol | –
333.72 K | 173.45 J/K/mol | –
337.03 K | 174.6 J/K/mol | –
340 K | 175.62 J/K/mol | –
340.34 K | 175.73 J/K/mol | –
343.63 K | 176.72 J/K/mol | –
346.92 K | 178.18 J/K/mol | –
350 K | 179.02 J/K/mol | –
350.2 K | 178.96 J/K/mol | –
353.46 K | 180.41 J/K/mol | –
356.72 K | 181 J/K/mol | –
357.65 K | 181.37 J/K/mol | –
359.97 K | 182.49 J/K/mol | –
360 K | 182.5 J/K/mol | –
360.9 K | 182.62 J/K/mol | –
363.22 K | 183.54 J/K/mol | –
364.15 K | 183.8 J/K/mol | –
366.45 K | 185.01 J/K/mol | –
367.38 K | 185.01 J/K/mol | –
369.68 K | 185.57 J/K/mol | –
370 K | 185.85 J/K/mol | –
370.61 K | 186.07 J/K/mol | –
372.9 K | 186.88 J/K/mol | –
373.83 K | 187.15 J/K/mol | –
376.11 K | 187.95 J/K/mol | –
377.04 K | 188.3 J/K/mol | –
379.31 K | 189.23 J/K/mol | –
380 K | 189.36 J/K/mol | –
380.25 K | 189.56 J/K/mol | –
390 K | 192.86 J/K/mol | –
394.96 K | 194.6 J/K/mol | 220.84 J/K/mol
399 K | – | 222.12 J/K/mol
400 K | – | 222.34 J/K/mol
401.94 K | – | 222.86 J/K/mol
404.87 K | – | 223.83 J/K/mol
407.79 K | – | 224.32 J/K/mol
410 K | – | 225.31 J/K/mol
410.72 K | – | 225.87 J/K/mol
413.63 K | – | 226.31 J/K/mol
